Laboratory results: US7754721B2, “Arylpiperazine derivatives and uses thereof” (Roche Palo Alto LLC, priority 2006, dated 2010)
pKi: −log10 of the molar value.

Target: T1, human serotonin transporter (hSERT) (Homo sapiens, UniProt P31645)
T1 construct: expressed in transfected cells; membranes prepared
Test: hSERT scintillation proximity assay, competition with [3H]-Citalopram
Format: binding
Conditions: membranes of HEK-293 cells, Cheng-Prusoff
Experimental: The screening assay of this example was used to determine the affinity of ligands at the hSERT transporter by competition with [^3H]-Citalopram.
Scintillation Proximity Assay (SPA) works by bringing radioligand within close proximity to the bead's scintillant to stimulate light emission. In this assay, the receptor-containing membranes were pre-coupled to the SPA beads and the binding of the appropriate radioligand to the transporter was measured. The light emission was proportional to the amount of bound radioligand. Unbound radioligand produced no signal as a result of distant proximity to scintillant (lack of energy transfer). […]
Cell membranes were prepared using a membrane preparation buffer of 50 mM TRIS (pH 7.4). […] After a second centrifugation, the pellet was re-homogenized and brought to a final volume determined during the assay. […]
The % inhibition was calculated for each compound tested [(Compound counts per minute (CPM) at maximum concentration-Non-Specific CPM)/Total CPM*100]. […]
[formula] where max=total binding, min=non specific binding, x=concentration (M) of the tested compound and n=Hill slope. The inhibition dissociation constant (Ki) of each compound was determined according to the method of Cheng-Prusoff and then converted into negative logarithm (pKi) of the Ki.

T1 sequence (P31645 whole entry): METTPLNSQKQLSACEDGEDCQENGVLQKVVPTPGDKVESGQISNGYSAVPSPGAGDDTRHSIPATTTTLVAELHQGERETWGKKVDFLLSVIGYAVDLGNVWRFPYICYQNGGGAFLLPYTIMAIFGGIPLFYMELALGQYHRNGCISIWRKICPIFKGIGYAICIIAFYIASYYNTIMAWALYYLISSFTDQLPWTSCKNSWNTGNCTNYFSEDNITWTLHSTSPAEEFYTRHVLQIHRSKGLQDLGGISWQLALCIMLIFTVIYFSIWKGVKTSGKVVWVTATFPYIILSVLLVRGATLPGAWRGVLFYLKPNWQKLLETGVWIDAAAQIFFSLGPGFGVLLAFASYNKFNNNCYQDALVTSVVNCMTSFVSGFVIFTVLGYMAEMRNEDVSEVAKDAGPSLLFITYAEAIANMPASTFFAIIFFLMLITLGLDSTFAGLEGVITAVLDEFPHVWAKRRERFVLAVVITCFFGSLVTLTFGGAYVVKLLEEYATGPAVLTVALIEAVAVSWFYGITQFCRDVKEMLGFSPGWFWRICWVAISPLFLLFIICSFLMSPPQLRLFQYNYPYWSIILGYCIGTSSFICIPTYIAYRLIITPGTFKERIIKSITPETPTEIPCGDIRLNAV

pKi: ~9.87
SMILES: c1ccc(CC2CNCCN2c2ccc3cnccc3c2)cc1 (stereo not shown) [6-(2-Benzyl-piperazin-1-yl)-isoquinoline]
